{"source": "patent US7214672B2", "about": "“Preventives/remedies for inflammatory airway diseases” (Nippon Shinyaku Co., Ltd., priority 2000, dated 2007)", "tested_on": "Rat (male, female)", "assay": "Single dose toxicity study", "type": "in vivo", "settings": "rats, administered only once", "method": "Compound 1 or 2 of the present invention was administered to rats only once, and the lethal dose thereof was determined.", "data": [{"smiles": "C[C@@H]1C[C@H]2[C@@H]3CCC4=CC(=O)C=C[C@]4(C)[C@@]3(F)[C@@H](O)C[C@]2(C)[C@@]1(OC(=O)C1CC1)C(=O)CO", "note": "[Compound 1, 9-fluoro-11β,17,21-trihydroxy-16α-methyl-1,4-pregnadiene-3,20-dione 17-cyclopropanecarboxylate]", "values": [{"measurement": "toxicity (single dose)", "value": "low toxicity"}]}, {"smiles": "C[C@@H]1C[C@H]2[C@@H]3CCC4=CC(=O)C=C[C@]4(C)[C@@]3(F)[C@@H](O)C[C@]2(C)[C@@]1(OC(=O)C1CC1)C(=O)COC(=O)C1CCCCC1", "note": "[Compound 2, 9-fluoro-11β,17,21-trihydroxy-16α-methyl-1,4-pregnadiene-3,20-dione 21-cyclohexanecarboxylate 17-cyclopropanecarboxylate]", "values": [{"measurement": "toxicity (single dose)", "value": "low toxicity"}]}]}
